Reference: ChEMBL document CHEMBL1156404, “Haploscleridamine, a novel tryptamine-derived alkaloid from a sponge of the order haplosclerida: an inhibitor of cathepsin K” (J Nat Prod, 2002)

Molecular target: T1, Cathepsin K (Homo sapiens, UniProt P43235)
T1 sequence (P43235 whole entry): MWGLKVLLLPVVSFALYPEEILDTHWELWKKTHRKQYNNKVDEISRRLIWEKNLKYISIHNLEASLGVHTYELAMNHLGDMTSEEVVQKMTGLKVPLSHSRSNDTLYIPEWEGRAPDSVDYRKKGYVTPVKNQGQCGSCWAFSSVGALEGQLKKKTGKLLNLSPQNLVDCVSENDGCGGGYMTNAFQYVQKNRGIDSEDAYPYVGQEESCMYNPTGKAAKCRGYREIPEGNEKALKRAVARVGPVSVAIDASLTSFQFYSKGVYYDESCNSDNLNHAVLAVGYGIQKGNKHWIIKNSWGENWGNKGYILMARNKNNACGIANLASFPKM
Experiment: Inhibition of cathepsin K by fluorimetric assay

| Structure (SMILES) | IC50 [µM] |
| --- | --- |
| c1ccc2c3c([nH]c2c1)C(Cc1c[nH]cn1)NCC3 (configuration not stated) [HAPLOSCLERIDAMINE] | 26 |
| NCCc1c[nH]c2ccccc12 [TRYPTAMINE] | 15 |
